According to PubChem BioAssay (NCI):
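Five compound concentrations were applied to cells in 96-well plates for 48 hours; endpoints were derived by simple linear interpolation of the resulting dose-response curve. TGI: total growth inhibition.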

Key:
Test in all cases: NCI tumour cell line growth inhibition, 48 h
BT-549 breast = test system: BT-549 breast
COLO 205 colon = test system: COLO 205 colon
DU-145 prostate = test system: DU-145 prostate
EKVX NSCLC = test system: EKVX NSCLC
HCT-15 colon = test system: HCT-15 colon
HL-60(TB) leukemia = test system: HL-60(TB) leukemia
HOP-62 NSCLC = test system: HOP-62 NSCLC
MALME-3M melanoma = test system: MALME-3M melanoma
MDA-MB-231 breast = test system: MDA-MB-231 breast
MOLT-4 leukemia = test system: MOLT-4 leukemia
NCI-H23 lung = test system: NCI-H23 lung
NCI-H522 lung = test system: NCI-H522 lung
OVCAR-4 ovarian = test system: OVCAR-4 ovarian
OVCAR-8 ovarian = test system: OVCAR-8 ovarian
PC-3 prostate = test system: PC-3 prostate
SF-295 CNS = test system: SF-295 CNS
SN12C renal = test system: SN12C renal
UACC-257 melanoma = test system: UACC-257 melanoma
UO-31 renal = test system: UO-31 renal

SMILES | TGI (BT-549 breast) [µM] | TGI (COLO 205 colon) [µM] | TGI (DU-145 prostate) [µM] | TGI (EKVX NSCLC) [µM] | TGI (HCT-15 colon) [µM] | TGI (HL-60(TB) leukemia) [µM] | TGI (HOP-62 NSCLC) [µM] | TGI (MALME-3M melanoma) [µM] | TGI (MDA-MB-231 breast) [µM] | TGI (MOLT-4 leukemia) [µM] | TGI (NCI-H23 lung) [µM] | TGI (NCI-H522 lung) [µM] | TGI (OVCAR-4 ovarian) [µM] | TGI (OVCAR-8 ovarian) [µM] | TGI (PC-3 prostate) [µM] | TGI (SF-295 CNS) [µM] | TGI (SN12C renal) [µM] | TGI (UACC-257 melanoma) [µM] | TGI (UO-31 renal) [µM]
O=[N+]([O-])c1ccc(-c2csc3nc(-c4ccccc4)nn23)cc1 | > 100 | > 100 | > 100 | > 100 | > 100 | > 100 | > 100 | > 100 | > 100 | > 100 | > 100 | > 100 | > 100 | > 100 | > 100 | > 100 | > 100 | > 100 | > 100
CCNCCNc1c2ccccc2nc2ccccc12 | 10.2 | 3.42 | 7.42 | 21.9 | 5.83 | > 100 | 4.21 | 4.6 | 3.02 | > 100 | 3.36 | 4.69 | 11.1 | 7.06 | 3.95 | 3.3 | 4.91 | 3.46 | 5.02
O=c1c2nn3c(=O)n(-c4ccccc4)c(=O)c3nn2c(=O)n1-c1ccccc1 | > 100 | > 100 | > 100 | > 100 | > 100 | > 100 | > 100 | > 100 | > 100 | > 100 | > 100 | > 100 | > 100 | > 100 | > 100 | > 100 | > 100 | > 100 | > 100
O=c1cc(NNc2ccccc2)[nH]c(=S)[nH]1 | > 100 | > 100 | > 100 | > 100 | 42.1 | 62.6 | > 100 | > 100 | 65.2 | 91.7 | > 100 | 35.7 | > 100 | > 100 | > 100 | > 100 | > 100 | > 100 | > 100
CCCNC(=O)c1cc(NC(=O)c2cc(NC(=O)/C=C/c3ccccc3)c(OC)c(OC)c2)c(OC)c(OC)c1 | 53.4 | > 100 | > 100 | 54.1 | > 100 | > 100 | 19.4 | 8.74 | 6.27 | > 100 | > 100 | 23.1 | 8.05 | 17 | 33.5 | 11.2 | 0.879 | 52.2 | 20.7
C=CCOc1ccc(/C(N=Nc2ccc(Cl)cc2)=N/NC(=O)c2ccccc2)cc1OC | 70.3 | > 100 | > 100 | > 100 | > 100 | > 100 | > 100 | > 100 | > 100 | > 100 | > 100 | > 100 | > 100 | > 100 | > 100 | > 100 | > 100 | > 100 | > 100
